Laboratory results reported in patent US20100184869A1, “METHOD AND KIT FOR DETERMINING SIRTUIN MODULATING AGENTS, SIRTUIN MODULATING PROCEDURE, SIRTUIN MODULATING COMPOUNDS AND COMPOSITIONS INCLUDING THE SAME” (priority 2008, published 2010).

System: SIRT1 gene expression
Assay: semi-quantitative RT-PCR of sirtuin mRNA/β-actin mRNA ratio in zebrafish tissues after resveratrol
Format: in vivo, zebrafish (Danio rerio)
Conditions: FIG. 3
Text: On the Y axis, I is the rate of mRNA X, a is muscle and b is liver.
The method for determining modulating agents of sirtuin gene expression is comprised of the following stages: • a) contacting cells comprising at least on gene of the sirtuin family and the β-actin gene, with a modulating agent; • b) determining the relative abundance of mRNA of the sirtuin-family gene; • c) determining the relative abundance of the mRNA of the β-actin gene; and • d) determining the mRNA SIRTImRNA β-actin ratio.
The mapping of the pattern and levels of expression in each one of the eight genes related to zebrafish sirtuin was determined in eight tissues (spleen, gills, brain, heart, liver, female sexual organs and male sexual organs, skeletal muscle and kidneys), by way of the analysis of semi-quantitative RT-PCR comparing the relative abundance of mRNA of each one of the genes related to sirtuins with the mRNA of the gene codifying for β-actin (mean ±E.P.) (FIG. 2 and Table 2).

SMILES: Oc1ccc(/C=C/c2cc(O)cc(O)c2)cc1 [resveratrol, 3.4′,5-trihydroxy-trans-stilbene]
- SIRT1 gene expression (mRNA SIRT/mRNA β-actin ratio) (zebrafish liver): significant increase
- SIRT1 gene expression (mRNA SIRT/mRNA β-actin ratio) (zebrafish skeletal muscle): significant increase
